# Experimental data taken from patent USRE39220E1, “Peptide-mediated gene transfer” (Genetic Applications, LLC, priority 1994, dated 2006).
# Assays:
# Type in all cases: cell-based
# [1] = test system: mouse erythroleukemia cell line, C19TK; test: Stable transfection of hematopoietic cells in suspension, hygromycin selection (pDR2); details: pDR2, hygromycin selection in microtiter plates, plated 48 hours after transfection
# Description: A mouse erythroleukemia cell line, C19TK, also was used as a representative cell line for testing the transfection efficiency of the present invention with respect to hematopoietic cells. The expression vector, pDR2, which carries a hygromycin-resistance gene, was used for these studies, C19TK cells are exquisitely sensitive for the antibiotic hygromycin.
# Briefly, about million cells are spun down and the cell pellet is treated with primer. The cells are then exposed to DNA-polypeptide complex under hypotonic condition. Forty-eight hours after transfection, a known number of cells are plated in microtiter plates with hygromycin. The number of wells with growing population of cells was enumerated to determine the transfection efficiency. The stable transfection efficiency was about 1-5%, as compared to most of the other non-virus-based methods that are very poor. Thus, the method described herein is very efficient for stable transfection efficiency both for hematopoietic and non hematopoietic cell lines. […] See Gilboa, et al. (1986), Miller, et al. (1986), Stuhlmann, et al. (1989), Miller, et al. (1989), and Zwiebel, et al. (1989), each cited above.
# [2] = test system: Mouse fibroblast cell line (L cells); test: Selection of stably transfected cell lines (G418-resistant colonies); details: G418 400 μg/ml selection, colonies counted two weeks after start of selection, similar with hygromycin
# Description: The DNA or other polynucleotide to be transfected, such as a plasmid containing a gene for a drug resistance marker or coding a protein needed for expression in the host cell, is complexed to a synthetic polypeptide molecule in different weight ratios in an isotonic buffer solution. For example the weight ratio of DNA:polypeptide can be between 1:1 and 10:1, although ratios outside of this range may be evaluated empirically for achieving the objects of the present invention. An isotonic buffer solution such as Hanks buffered salt solution or HEPES buffered saline may be used for complexing DNA to polypeptide.
# (§1) While the complex is formed, the cells that are to be transfected either remain attached to a substratum, such as a tissue culture dish, or are pelleted (for cells that grow in suspension). The cells are treated with a hypertonic primer solution, such as a concentration of 0.3M-0.6M sucrose and 10% PEG in either Tris-HCl or HEPES (pH 7.2) buffered solution, for 3-5 mins at room temperature. The primer solution then is removed.
# After the DNA-polypeptide complex is formed, it is made hypotonic. […]
# Transfected cells are grown in regular growth medium for 48 hours, and then plated in selective medium containing 400 μg/ml of G418. […] The number of G418-resistant colonies was determined two weeks after the initiation of selection. […]
# COS cells = test: Transient expression of β-gal reporter gene (CH110) in COS cells; details: DNA-polypeptide 2.5-5.0 μg, stained 48 hrs after transfection
# Description: as §1
# After the DNA-polypeptide complex is formed, it is made hypotonic. The complex solution is hypotonic when it has a lesser osmotic pressure than a 0.15M or 0.9% solution of NaCl. For example, the complex in isotonic buffer can be made […] hypotonic or 0.075M simply by adding an amount of distilled water that is equal to the volume of the complex in isotonic buffer. The hypotonic complex solution then is added to the cells that have been treated with the primer solution. Cells remain in the hypotonic DNA-polypeptide solution for 3-4 minutes. Fresh medium then is added to the cells to rinse away excess DNA-polypeptide solution. Thereafter, the cells are grown normally.
# Three different cell lines were used to test the efficiency of gene transfer of the new method. Mouse fibroblast cell line (L cells), mouse erythroleukemia cell line (C19TK), and COS cells. The COS cell line was used to establish conditions for transient gene expression. […]
sequence,measurement,setting,value
"PKKKRKVSGGGGGKKKKKKKKKKKK [Peptide-Mediated Gene Transfer, synthetic polypeptide (NLS peptide, neutral hinge, polylysine chain) linked electrostatically to DNA, forming a polypeptide-DNA complex]",Stable Transfection Efficiency,[1],1-5%
same,Stable Transfection Efficiency,[2],5-10%
same,Stable Transfection Efficiency,[2]; listed as DNA-polypeptide complex,5-10%
same,cells positive for the expression of the β-gal reporter gene,COS cells,Forty to fifty
